Measured values taken from patent publication US20250270274A1, “SUPER LONG-LASTING GLP1 OR GLP1/GIP ANALOGUE DRUG FOR TYPE-2 DIABETES AND OBESITY” (Serpentide Inc., priority 2024, published 2025).
“And” between values parts separate entries of the source, which are not always exact repeats. Equal entries are not always repeated.

Tests used:
C57BL mice = test: Intraperitoneal glucose tolerance test (IPGTT) after single SC injection; assay type: in vivo; settings: for glucose reduction (IPGTT): single SC 100 or 300 nmol/kg; for glucose-lowering effect (IPGTT): single SC, P19 15 nmol/kg, P28 10 or 30 nmol/kg (FIG. 5 legend)
Method: The effect of the fusion proteins on glucose tolerance was determined in C57BL mice (Beijing Vital River Laboratory Animal Technology Co., Ltd.). Each group (6 mice per group) received a single subcutaneous injection of PBS vehicle control, dulaglutide (TRULICITY® brand) (Vetter Pharma-Fertigung GmbH & Co. […] Intraperitoneal glucose tolerance tests (IPGTT) were performed on Day 1, 7, 14, 21, up to 28 after 6 hours fasting with tail vein blood glucose measurements at 0, 15, 30, 60, and 120 minutes.

DIO mice = test: 28-day study in DIO mice: body weight, blood glucose, food intake; assay type: in vivo; settings: for weight loss: after 28 days
Method: To further characterize and understand the efficacy of the fusion proteins, body weight and metabolic parameters were measured throughout a 28-day study in DIO mice (Beijing Vital River Laboratory Animal Technology Co., Ltd.).
The effects of all fusion proteins on blood glucose reduction and food intake were determined in the DIO mice described above (FIG. 7A and FIG. 7B). All mice are bled after fasting for 6 hours to measure blood glucose twice weekly.

[1] = cited from earlier work

Row | Molecule | glucose reduction (IPGTT) (C57BL mice; Day 1) | glucose reduction (IPGTT) (C57BL mice; Day 7 and 14) | glucose reduction (IPGTT) (C57BL mice; Day 21) | weight loss (DIO mice; 10 nmol/kg twice weekly) | weight loss (DIO mice; 30 nmol/kg twice weekly) [%] | glucose-lowering effect (IPGTT) (C57BL mice; Day 1) | glucose-lowering effect (IPGTT) (C57BL mice; Day 7) | decrease in body weight compared with dulaglutide (DIO mice; twice weekly) | half-life in mice [1]
1 | dulaglutide [reference compound] | very strong glucose reduction | rapidly waned | completely lost effect | 10.9% and 11% | 16.6 |  |  |  | 
2 | CC[C@H](C)[C@H](NC(=O)[C@H](CC(C)C)NC(=O)[C@H](Cc1c[nH]c2ccccc12)NC(=O)[C@H](CCC(N)=O)NC(=O)[C@@H](NC(=O)[C@H](Cc1ccccc1)NC(=O)[C@H](C)NC(=O)[C@H](CCCCNC(=O)COCCOCCNC(=O)COCCOCCNC(=O)CC[C@H](NC(=O)CCCCCCCCCCCCCCCCCCC(=O)O)C(=O)O)NC(=O)[C@H](CCC(N)=O)NC(=O)[C@H](C)NC(=O)[C@@H](NC(=O)[C@H](CCCCN)NC(=O)[C@H](CC(=O)O)NC(=O)[C@H](CC(C)C)NC(=O)C(C)(C)NC(=O)[C@@H](NC(=O)[C@H](CO)NC(=O)[C@H](Cc1ccc(O)cc1)NC(=O)[C@H](CC(=O)O)NC(=O)[C@H](CO)NC(=O)[C@@H](NC(=O)[C@H](Cc1ccccc1)NC(=O)[C@@H](NC(=O)CNC(=O)[C@H](CCC(=O)O)NC(=O)C(C)(C)NC(=O)[C@@H](N)Cc1ccc(O)cc1)[C@@H](C)O)[C@@H](C)O)[C@@H](C)CC)[C@@H](C)CC)C(C)C)C(=O)N[C@@H](C)C(=O)NCC(=O)NCC(=O)N1CCC[C@H]1C(=O)N[C@@H](CO)C(=O)N[C@@H](CO)C(=O)NCC(=O)N[C@@H](C)C(=O)N1CCC[C@H]1C(=O)N1CCC[C@H]1C(=O)N1CCC[C@H]1C(=O)N[C@@H](CO)C(N)=O [P19, Tirzepatide, reference compound] |  |  |  |  | 26 | showed glucose-lowering effects | lost all effects | more significant dose-dependent decrease in body weight | less than one day
